# Results as given in patent US20090149533A1 (TransForm Pharmaceuticals, Inc., priority 2004, published 2009).
# How the values were obtained:
# [1] = Stability and compatibility of fenofibrate and E463808 (gradient HPLC); type: physicochemical; conditions: 80 or 200 mg/mL in E463808, sealed vial or gelcap, 4 deg C. to 60 deg C., up to 8 weeks
# [2] = Equilibrium fenofibrate solubility in ethyl esters versus triglycerides; type: physicochemical; conditions: fenofibrate solubility at 25 degrees C. in the vehicle given as label
# [3] = in vivo; cited from earlier work
# [4] = Solubility of fenofibrate in E463808-additive mixtures; type: physicochemical; conditions: about 10% v/v additive; 25° C.
# Method: Equilibrated samples were filtered using 0.2 micrometer PVDF syringe filters and diluted for assay. […] (Tween 85 is also known as polyoxyethylenesorbitan trioleate, Tween 80 is also known as polyoxyethylenesorbitan monooleate, Span 80 is also known as sorbitan monooleate, Span 85 is also known as sorbitan trioleate, and Cremophor EL is also known as polyoxyl castor oil.) Span 80, Span 85, and Tween 85 samples were analyzed using normal-phase HPLC. Cremophor EL, Tween 80, and replicates of Tween 85 samples were analyzed using UV measurements at 285 nm.
Molecule,effect of additive on fenofibrate solubility in E463808 [4],other results
"CC(C)OC(=O)C(C)(C)Oc1ccc(C(=O)c2ccc(Cl)cc2)cc1 [Fenofibrate, 2-[4-(4-chlorobenzoyl)phenoxy]-2-methyl-propanoic acid 1-methylethyl ester]",–,degradation of fenofibrate [1]: no degradation was observed
CCCCC/C=C\C/C=C\CCCCCCCC(=O)OCC(COC(=O)CCCCCCC/C=C\C/C=C\CCCCC)OC(=O)CCCCCCC/C=C\C/C=C\CCCCC [Trilinolein],–,Solubility [2]: 61.2 mg/mL
CC(C)(Oc1ccc(C(=O)c2ccc(Cl)cc2)cc1)C(=O)O [fenofibric acid],–,elimination half-life [3]: approximately twenty
polyoxyethylenesorbitan monooleate [Tween 80®],Slight enhancement in fenofibrate solubility,–
polyoxyethylenesorbitan trioleate [Tween 85®],Slight enhancement in fenofibrate solubility,–
polyoxyl castor oil [Cremophor® EL],Slight enhancement in fenofibrate solubility,–
